From patent US20190231751A1, “TREATMENT OF FIBROTIC DISORDERS WITH JUN N-TERMINAL KINASE INHIBITORS” (Imago Pharmaceuticals, Inc., priority 2016, published 2019)

Assays:
Type in all cases: biochemical
JNK3 = JNK3 (Homo sapiens, UniProt P53779); test: In vitro JNK3 inhibition (Table 1)
Method: (§1) In vitro assays for the determination of JNK activities are known in the art and exemplary assay formats are described herein.
(§2) IC50 values in Table 1 were determined using the procedures as described in U.S. Pat. No. 8,450,353.

JNK1 = JNK1 (Homo sapiens, UniProt P45983); test: In vitro JNK1 inhibition (Table 1)
Chain of JNK1 (P45983 whole entry, species assumed): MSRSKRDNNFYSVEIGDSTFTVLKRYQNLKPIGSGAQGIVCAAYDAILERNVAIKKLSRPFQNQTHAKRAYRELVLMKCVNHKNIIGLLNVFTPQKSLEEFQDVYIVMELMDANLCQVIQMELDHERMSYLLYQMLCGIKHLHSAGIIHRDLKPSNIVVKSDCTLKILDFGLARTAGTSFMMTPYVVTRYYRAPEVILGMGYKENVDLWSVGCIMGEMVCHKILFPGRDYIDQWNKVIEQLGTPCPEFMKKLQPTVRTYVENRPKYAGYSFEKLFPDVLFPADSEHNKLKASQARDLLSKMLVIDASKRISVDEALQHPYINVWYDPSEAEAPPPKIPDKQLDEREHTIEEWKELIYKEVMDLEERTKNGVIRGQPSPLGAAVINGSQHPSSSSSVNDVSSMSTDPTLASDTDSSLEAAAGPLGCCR
Method: as §1, §2

JNK2 = JNK2 (Homo sapiens, UniProt P45984); test: In vitro JNK2 inhibition (Table 1)
Chain of JNK2 (P45984 whole entry, species assumed): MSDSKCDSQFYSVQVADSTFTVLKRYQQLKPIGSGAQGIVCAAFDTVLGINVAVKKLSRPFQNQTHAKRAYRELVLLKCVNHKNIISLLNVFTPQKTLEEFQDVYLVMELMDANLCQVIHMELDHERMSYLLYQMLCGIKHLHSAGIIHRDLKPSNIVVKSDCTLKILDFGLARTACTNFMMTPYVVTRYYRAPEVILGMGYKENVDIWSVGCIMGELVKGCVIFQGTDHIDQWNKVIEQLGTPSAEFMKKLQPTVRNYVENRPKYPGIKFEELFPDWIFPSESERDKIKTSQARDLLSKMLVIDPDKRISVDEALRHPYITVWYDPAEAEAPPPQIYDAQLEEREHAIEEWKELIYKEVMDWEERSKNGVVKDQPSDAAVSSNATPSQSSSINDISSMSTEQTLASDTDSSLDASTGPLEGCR
Method: as §1, §2

Chain of JNK3 (P53779 whole entry, species assumed): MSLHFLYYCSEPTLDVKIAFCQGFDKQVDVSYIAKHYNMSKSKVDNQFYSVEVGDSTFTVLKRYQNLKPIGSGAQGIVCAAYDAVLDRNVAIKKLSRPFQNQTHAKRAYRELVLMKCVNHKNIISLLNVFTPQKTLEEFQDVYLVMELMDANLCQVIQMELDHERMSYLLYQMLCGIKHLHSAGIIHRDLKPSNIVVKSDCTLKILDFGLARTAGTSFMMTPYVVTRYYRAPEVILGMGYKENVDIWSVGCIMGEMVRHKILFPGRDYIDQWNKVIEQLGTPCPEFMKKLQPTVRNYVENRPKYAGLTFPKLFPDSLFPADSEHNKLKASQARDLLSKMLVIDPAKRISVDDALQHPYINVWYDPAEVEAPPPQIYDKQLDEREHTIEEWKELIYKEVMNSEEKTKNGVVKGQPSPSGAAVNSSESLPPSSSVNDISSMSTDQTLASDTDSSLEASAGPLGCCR

IC50 (JNK3) | IC50 (JNK1) | IC50 (JNK2) | Structure (SMILES)
< 100 nM | 100 to 10000 nM | < 100 nM | O=C(Cn1c(=O)ccc2cc(C(F)(F)F)ccc21)Nc1scc(Br)c1-n1nccn1 [N-(4-bromo-3-(2H-1,2,3-triazol-2-yl)thiophen-2-yl)-2-(2-oxo-6-(trifluoromethyl)quinolin-1(2H)-yl)acetamide]
< 100 nM | < 100 nM | < 100 nM | CN(C)CCn1cnc(-c2c(Cl)csc2NC(=O)Cn2c(=O)ccc3cc(C(F)(F)F)ccc32)n1 [N-(4-chloro-3-(1-(2-(dimethylamino)ethyl)-1H-1,2,4-triazol-3-yl)thiophen-2-yl)-2-(2-oxo-6-(trifluoromethyl)quinolin-1(2H)-yl)acetamide]
< 100 nM | < 100 nM | < 100 nM | CN(C)CCCn1cnc(-c2c(Cl)csc2NC(=O)Cn2c(=O)ccc3cc(C(F)(F)F)ccc32)n1 [N-(4-chloro-3-(1-(3-(dimethylamino)propyl)-1H-1,2,4-triazol-3-yl)thiophen-2-yl)-2-(2-oxo-6-(trifluoromethyl)quinolin-1(2H)-yl)acetamide]
< 100 nM | < 100 nM | < 100 nM | O=C(Cn1c(=O)ccc2cc(C(F)(F)F)ccc21)Nc1scc(Cl)c1-c1ncn(CCCN2CCCC2)n1 [N-(4-chloro-3-(1-(3-(pyrrolidin-1-yl)propyl)-1H-1,2,4-triazol-3-yl)thiophen-2-yl)-2-(2-oxo-6-(trifluoromethyl)quinolin-1(2H)-yl)acetamide]
< 100 nM | < 100 nM | < 100 nM | O=C(Cn1c(=O)ccc2cc(C(F)(F)F)ccc21)Nc1scc(Cl)c1-c1ncn(CCCN2CCOCC2)n1 [N-(4-chloro-3-(1-(3-morpholinopropyl)-1H-1,2,4-triazol-3-yl)thiophen-2-yl)-2-(2-oxo-6-(trifluoromethyl)quinolin-1(2H)-yl)acetamide]
< 100 nM | < 100 nM | < 100 nM | Cn1cnc(-c2c(Cl)csc2NC(=O)Cn2c(=O)ccc3nc(C(F)(F)F)ccc32)n1 [N-(4-chloro-3-(1-methyl-1H-1,2,4-triazol-3-yl)thiophen-2-yl)-2-(2-oxo-6-(trifluoromethyl)-1,5-naphthyridin-1(2H)-yl)acetamide]
< 100 nM | < 100 nM | < 100 nM | Cn1cnc(-c2c(Cl)csc2NC(=O)Cn2c(=O)ccc3cnc(C(F)(F)F)cc32)n1 [N-(4-chloro-3-(1-methyl-1H-1,2,4-triazol-3-yl)thiophen-2-yl)-2-(2-oxo-7-(trifluoromethyl)-1,6-naphthyridin-1(2H)-yl)acetamide]
< 100 nM | < 100 nM | < 100 nM | Cn1cnc(-c2c(Cl)csc2NC(=O)Cn2c(=O)ccn3nc(C(F)(F)F)cc23)n1 [N-(4-chloro-3-(1-methyl-1H-1,2,4-triazol-3-yl)thiophen-2-yl)-2-(5-oxo-2-(trifluoromethyl)pyrazolo[1,5-a]pyrimidin-4(5H)-yl)acetamide]
100 to 10000 nM | 100 to 10000 nM | 100 to 10000 nM | CN(C)CCN(C(=O)Cn1c(=O)ccc2cc(C(F)(F)F)ccc21)c1scc(Cl)c1-c1nc[nH]n1 [N-(4-chloro-3-(1H-1,2,4-triazol-3-yl)thiophen-2-yl)-N-(2-(dimethylamino)ethyl)-2-(2-oxo-6-(trifluoromethyl)quinolin-1(2H)-yl)acetamide]
< 100 nM | < 100 nM | < 100 nM | O=C(Cn1c(=O)ccc2cc(C(F)(F)F)ccc21)Nc1scc(Cl)c1-c1ncn[nH]1 [N-(4-chloro-3-(1H-1,2,4-triazol-5-yl)thiophen-2-yl)-2-(2-oxo-6-(trifluoromethyl)quinolin-1(2H)-yl)acetamide]

Further lines, the molecule ahead of its results:

Structure (SMILES) | IC50 (JNK3) | IC50 (JNK1) | IC50 (JNK2)
O=C(CN1C(=O)CCc2cc(F)ccc21)Nc1scc(Br)c1-c1ncn[nH]1 [N-(4-bromo-3-(1H-1,2,4-triazol-5-yl)thiophen-2-yl)-2-(6-fluoro-2-oxo-3,4-dihydroquinolin-1(2H)-yl)acetamide] | < 100 nM | < 100 nM | < 100 nM
O=C(Cn1c(=O)ccc2cc(F)ccc21)Nc1scc(Br)c1-c1ncn[nH]1 [N-(4-bromo-3-(1H-1,2,4-triazol-5-yl)thiophen-2-yl)-2-(6-fluoro-2-oxoquinolin-1(2H)-yl)acetamide] | < 100 nM | < 100 nM | < 100 nM
O=C(Cc1c(F)ccc2ncccc12)Nc1scc(Br)c1-c1ncn[nH]1 [N-(4-bromo-3-(1H-1,2,4-triazol-5-yl)thiophen-2-yl)-2-(6-fluoroquinolin-5-yl)acetamide] | < 100 nM | < 100 nM | < 100 nM
O=C(CN1C(=O)CCc2ccc(Cl)cc21)Nc1scc(Br)c1-c1ncn[nH]1 [N-(4-bromo-3-(1H-1,2,4-triazol-5-yl)thiophen-2-yl)-2-(7-chloro-2-oxo-3,4-dihydroquinolin-1(2H)-yl)acetamide] | < 100 nM | < 100 nM | < 100 nM
N#Cc1ccc2ccc(=O)n(CC(=O)Nc3scc(Br)c3-c3ncn[nH]3)c2c1 [N-(4-bromo-3-(1H-1,2,4-triazol-5-yl)thiophen-2-yl)-2-(7-cyano-2-oxoquinolin-1(2H)-yl)acetamide] | < 100 nM | < 100 nM | < 100 nM
O=C(Cn1c(=O)ccc2cc(C(F)(F)F)c(F)cc21)Nc1scc(Br)c1-c1ncn[nH]1 [N-(4-bromo-3-(1H-1,2,4-triazol-5-yl)thiophen-2-yl)-2-(7-fluoro-2-oxo-6-(trifluoromethyl)quinolin-1(2H)-yl)acetamide] | < 100 nM | < 100 nM | < 100 nM
O=C(Cn1c(=O)ccc2ccc(F)cc21)Nc1scc(Br)c1-c1ncn[nH]1 [N-(4-bromo-3-(1H-1,2,4-triazol-5-yl)thiophen-2-yl)-2-(7-fluoro-2-oxoquinolin-1(2H)-yl)acetamide] | < 100 nM | < 100 nM | < 100 nM
O=C(Cc1ccc(F)c2cnccc12)Nc1scc(Br)c1-c1ncn[nH]1 [N-(4-bromo-3-(1H-1,2,4-triazol-5-yl)thiophen-2-yl)-2-(8-fluoroisoquinolin-5-yl)acetamide] | < 100 nM | < 100 nM | < 100 nM
O=C(Cc1cccc2cnccc12)Nc1scc(Br)c1-c1ncn[nH]1 [N-(4-bromo-3-(1H-1,2,4-triazol-5-yl)thiophen-2-yl)-2-(isoquinolin-5-yl)acetamide] | < 100 nM | < 100 nM | < 100 nM
O=C(Cc1cccc2ncccc12)Nc1scc(Br)c1-c1ncn[nH]1 [N-(4-bromo-3-(1H-1,2,4-triazol-5-yl)thiophen-2-yl)-2-(quinolin-5-yl)acetamide] | < 100 nM | < 100 nM | < 100 nM
O=C(CN1C(=O)CCc2ncccc21)Nc1scc(Br)c1-c1ncco1 [N-(4-bromo-3-(oxazol-2-yl)thiophen-2-yl)-2-(2-oxo-3,4-dihydro-1,5-naphthyridin-1(2H)-yl)acetamide] | < 100 nM | < 100 nM | < 100 nM
Cn1cnc(-c2c(Cl)csc2NC(=O)CN2C(=O)CCc3ncccc32)n1 [N-(4-chloro-3-(1-methyl-1H-1,2,4-triazol-3-yl)thiophen-2-yl)-2-(2-oxo-3,4-dihydro-1,5-naphthyridin-1(2H)-yl)acetamide] | < 100 nM | < 100 nM | < 100 nM
Cn1cnc(-c2c(Cl)csc2NC(=O)Cn2c(=O)ccn3nccc23)n1 [N-(4-chloro-3-(1-methyl-1H-1,2,4-triazol-3-yl)thiophen-2-yl)-2-(5-oxopyrazolo[1,5-a]pyrimidin-4(5H)-yl)acetamide] | < 100 nM | < 100 nM | < 100 nM
O=C(CN1C(=O)CCc2ncccc21)Nc1scc(Cl)c1-c1nc[nH]n1 [N-(4-chloro-3-(1H-1,2,4-triazol-3-yl)thiophen-2-yl)-2-(2-oxo-3,4-dihydro-1,5-naphthyridin-1(2H)-yl)acetamide] | < 100 nM | < 100 nM | < 100 nM
O=C(Cn1c(=O)ccc2cc(C(F)(F)F)ccc21)N(CCCN1CCCC1)c1scc(Cl)c1-c1nc[nH]n1 [N-(4-chloro-3-(1H-1,2,4-triazol-3-yl)thiophen-2-yl)-2-(2-oxo-6-(trifluoromethyl)quinolin-1(2H)-yl)-N-(3-(pyrrolidin-1-yl)propyl)acetamide] | 100 to 10000 nM | 100 to 10000 nM | 100 to 10000 nM
O=C(Cn1c(=O)ccc2cnc(C(F)(F)F)cc21)Nc1scc(Cl)c1-c1nc[nH]n1 [N-(4-chloro-3-(1H-1,2,4-triazol-3-yl)thiophen-2-yl)-2-(2-oxo-7-(trifluoromethyl)-1,6-naphthyridin-1(2H)-yl)acetamide] | < 100 nM | < 100 nM | < 100 nM
N#Cc1ccc2c(ccc(=O)n2CC(=O)Nc2scc(Cl)c2-c2nc[nH]n2)c1 [N-(4-chloro-3-(1H-1,2,4-triazol-3-yl)thiophen-2-yl)-2-(6-cyano-2-oxoquinolin-1(2H)-yl)acetamide] | < 100 nM | < 100 nM | < 100 nM
O=C(CN1C(=O)CCc2ccccc21)Nc1scc(Cl)c1-c1ncn[nH]1 [N-(4-chloro-3-(1H-1,2,4-triazol-5-yl)thiophen-2-yl)-2-(2-oxo-3,4-dihydroquinolin-1(2H)-yl)acetamide] | < 100 nM | < 100 nM | < 100 nM
O=C(Cn1c(=O)ccc2nc(C(F)(F)F)ccc21)Nc1scc(Cl)c1-c1ncn[nH]1 [N-(4-chloro-3-(1H-1,2,4-triazol-5-yl)thiophen-2-yl)-2-(2-oxo-6-(trifluoromethyl)-1,5-naphthyridin-1(2H)-yl)acetamide] | < 100 nM | < 100 nM | < 100 nM
O=C(Cn1c(=O)ccn2nc(C(F)(F)F)cc12)Nc1scc(Cl)c1-c1ncn[nH]1 [N-(4-chloro-3-(1H-1,2,4-triazol-5-yl)thiophen-2-yl)-2-(5-oxo-2-(trifluoromethyl)pyrazolo[1,5-a]pyrimidin-4(5H)-yl)acetamide] | < 100 nM | < 100 nM | < 100 nM
